Tests used:
PJS103 = test system: PJS103
Method: Construction of mct-mrd co-expression plasmid. […] The fragment contained the mrd gene under the control of the T7 promoter, including transcriptional terminator sequences (rrnB T1) upstream and downstream of mrd.
The cultures were grown overnight at 37° C. and colony-forming units (CFUS) were determined.
Co-expression of mct and mrd in E. coli. To address the notion that MRD and MCT proteins participate as components of a binding protein-dependent drug export system, the mct and mrd genes were co-expressed in E. coli.

S. lavendulae wild-type = experiment: MC resistance of S. lavendulae, plate count; assay type: cell-based, Streptomyces lavendulae
Text: To establish a physiological role for MCT in S. lavendulae, the corresponding gene (mct) was inactivated by insertion of the aphII gene from transposon Tn5 to give pDHS7704.

Compound	resistance to mitomycin B (PJS103)	MC resistance level (S. lavendulae wild-type) [µg/mL]
COC1=C(C)C(=O)C2=C(C1=O)[C@H](COC(N)=O)[C@@]1(O)[C@@H]3[C@H](CN21)N3C (some centres unmarked) [Mitomycin B, mitomycin B]	high-level resistance	–
CO[C@@]12[C@H](COC(N)=O)C3=C(C(=O)C(C)=C(N)C3=O)N1C[C@@H]1N[C@@H]12 [MC, mitomycin C]	–	> 150
